As usually defined, the IC50 is the point on the concentration scale where inhibition reaches its midpoint.

The target in the experiment is T1, hNLRP3 (Homo sapiens, UniProt Q96P20).
T1 construct: THP-1 cells were purchased from the American Type Culture Collection; host or cells: THP-1 cells, PMA-differentiated, stimulated with gramicidin
T1 sequence (Q96P20 whole entry): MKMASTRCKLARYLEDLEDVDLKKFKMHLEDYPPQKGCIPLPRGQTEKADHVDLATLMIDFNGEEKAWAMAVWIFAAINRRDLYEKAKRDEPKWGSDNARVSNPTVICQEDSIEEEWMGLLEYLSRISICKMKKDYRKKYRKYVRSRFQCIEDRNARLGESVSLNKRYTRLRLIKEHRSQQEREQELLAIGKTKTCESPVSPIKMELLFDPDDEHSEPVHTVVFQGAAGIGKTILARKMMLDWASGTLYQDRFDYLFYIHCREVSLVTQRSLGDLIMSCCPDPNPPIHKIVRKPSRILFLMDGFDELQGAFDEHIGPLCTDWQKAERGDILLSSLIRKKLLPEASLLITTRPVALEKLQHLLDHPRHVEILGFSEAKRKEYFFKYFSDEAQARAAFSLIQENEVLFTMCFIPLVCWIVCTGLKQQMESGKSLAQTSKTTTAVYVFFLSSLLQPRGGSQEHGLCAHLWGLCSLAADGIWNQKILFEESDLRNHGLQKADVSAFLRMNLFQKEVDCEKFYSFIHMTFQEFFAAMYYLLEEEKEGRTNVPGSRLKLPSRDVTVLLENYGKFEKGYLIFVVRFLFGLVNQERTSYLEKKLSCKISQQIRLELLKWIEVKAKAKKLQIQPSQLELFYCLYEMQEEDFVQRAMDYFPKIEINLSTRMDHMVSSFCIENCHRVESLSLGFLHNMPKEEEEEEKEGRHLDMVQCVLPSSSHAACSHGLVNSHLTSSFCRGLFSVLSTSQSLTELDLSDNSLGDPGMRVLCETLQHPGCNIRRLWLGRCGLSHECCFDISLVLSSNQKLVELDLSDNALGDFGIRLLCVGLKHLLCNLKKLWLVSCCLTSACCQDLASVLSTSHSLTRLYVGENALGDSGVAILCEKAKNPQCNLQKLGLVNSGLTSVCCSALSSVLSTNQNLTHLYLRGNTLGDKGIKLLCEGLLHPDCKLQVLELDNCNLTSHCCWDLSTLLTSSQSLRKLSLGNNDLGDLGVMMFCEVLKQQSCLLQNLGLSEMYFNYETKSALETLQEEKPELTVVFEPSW
As to the kind of experiment: IL-1β production in PMA-differentiated THP-1 cells stimulated with gramicidin (hTHP-1 assay). It counts as cell-based. Particulars: read-out: NLRP3 Antagonist, hNLRP3 (THP-1, IL-1b) Normalized: GeoMean IC50.
Take `COC(=O)c1ccc2c(c1)S(=O)(=NC(=O)Nc1c3c(cc4c1CCC4)CCC3)NC2=O` (stereo not shown) [Compound 134, methyl 1-(((1,2,3,5,6,7-hexahydro-s-indacen-4-yl)carbamoyl)imino)-3-oxo-2,3-dihydro-1H-1l4-benzo[d]isothiazole-6-carboxylate 1-oxide]: the IC50 is 5 to 30 µM.

In the case of `O=C(N=S1(=O)CC2(CN1)COC2)Nc1c2c(cc3c1CCC3)CCC2` (stereo not shown) [Compound 139b], the IC50 is more than 30 µM.

`O=C(N=S1(=O)NC(=O)c2ccc(CN3CCC3)cc21)Nc1c2c(cc3c1CCC3)CCC2` (stereo not shown) [Compound 204, 1-(6-(azetidin-1-ylmethyl)-1-oxido-3-oxo-2,3-dihydro-1l4-benzo[d]isothiazol-1-ylidene)-3-(1,2,3,5,6,7-hexahydro-s-indacen-4-yl)urea]: the 50% inhibitory concentration (IC50) fell in the range of 0.2 to 1 µM.

With `C=C(C)c1ccc2c(c1)S(=O)(=NC(=O)Nc1c3c(cc4c1CCC4)CCC3)NC2=O` (stereo not shown) [Compound 207, 1-(1,2,3,5,6,7-hexahydro-s-indacen-4-yl)-3-(1-oxido-3-oxo-6-(prop-1-en-2-yl)-2,3-dihydro-1l4-benzo[d]isothiazol-1-ylidene)urea], the IC50 lay within 5 to 30 µM.

For the compound `CC(O)(CO)c1ccc2c(c1)S(=O)(=NC(=O)Nc1c3c(cc4c1CCC4)CCC3)NC2=O` (stereo not shown) [Compound 208, 1-(6-(1,2-dihydroxypropan-2-yl)-1-oxido-3-oxo-2,3-dihydro-1l4-benzo[d]isothiazol-1-ylidene)-3-(1,2,3,5,6,7-hexahydro-s-indacen-4-yl)urea], the IC50 fell in the range of 0.04 to 0.2 µM.

For the compound `COC(=O)Cc1ccc2c(c1)S(=O)(=NC(=O)Nc1c3c(cc4c1CCC4)CCC3)NC2=O` (stereo not shown) [Compound 209, methyl 2-(1-(((1,2,3,5,6,7-hexahydro-s-indacen-4-yl)carbamoyl)imino)-1-oxido-3-oxo-2,3-dihydro-1H-1l4-benzo[d]isothiazol-6-yl)acetate], the concentration for half-maximal inhibition (IC50) is 5 to 30 µM.

On to `O=C(N=S1(=O)NC(=O)c2ccc(-n3cccn3)cc21)Nc1c2c(cc3c1CCC3)CCC2` (stereo not shown) [Compound 211, 1-(1,2,3,5,6,7-hexahydro-s-indacen-4-yl)-3-(1-oxido-3-oxo-6-(1H-pyrazol-1-yl)-2,3-dihydro-1l4-benzo[d]isothiazol-1-ylidene)urea], for which the 50% inhibitory concentration (IC50) was more than 30 µM.

As to `CNC(=O)c1ccc2c(c1)S(=O)(=NC(=O)Nc1c3c(cc4c1CCC4)CCC3)NC2=O` (stereo not shown) [Compound 213, 1-(((1,2,3,5,6,7-hexahydro-s-indacen-4-yl)carbamoyl)imino)-N-methyl-3-oxo-2,3-dihydro-1H-1l4-benzo[d]isothiazole-6-carboxamide 1-oxide], the IC50 was 1 to 5 µM.

On to `CN(C)C(=O)c1ccc2c(c1)S(=O)(=NC(=O)Nc1c3c(cc4c1CCC4)CCC3)NC2=O` (stereo not shown) [Compound 214, 1-(((1,2,3,5,6,7-hexahydro-s-indacen-4-yl)carbamoyl)imino)-N,N-dimethyl-3-oxo-2,3-dihydro-1H-1l4-benzo[d]isothiazole-6-carboxamide 1-oxide], for which the IC50 was 5 to 30 µM.

In the case of `O=C(N=S1(=O)NC(=O)c2ccc(CO)cc21)Nc1c2c(cc3c1CCC3)CCC2` (stereo not shown) [Compound 216, 1-(1,2,3,5,6,7-hexahydro-s-indacen-4-yl)-3-(6-(hydroxymethyl)-1-oxido-3-oxo-2,3-dihydro-1l4-benzo[d]isothiazol-1-ylidene)urea], the half-inhibitory concentration (IC50) lay in the range of 0.2 to 1 µM.

As to `COCc1ccc2c(c1)S(=O)(=NC(=O)Nc1c3c(cc4c1CCC4)CCC3)NC2=O` (stereo not shown) [Compound 217, 1-(1,2,3,5,6,7-hexahydro-s-indacen-4-yl)-3-(6-(methoxymethyl)-1-oxido-3-oxo-2,3-dihydro-1l4-benzo[d]isothiazol-1-ylidene)urea], the IC50 fell in the range of 0.2 to 1 µM.

Regarding `O=C(N=S1(=O)NC(=O)c2ccc(CNCC3CC3)cc21)Nc1c2c(cc3c1CCC3)CCC2` (stereo not shown) [Compound 218, 1-(6-(((cyclopropylmethyl)amino)methyl)-1-oxido-3-oxo-2,3-dihydro-1l4-benzo[d]isothiazol-1-ylidene)-3-(1,2,3,5,6,7-hexahydro-s-indacen-4-yl)urea], the IC50 was 0.2 to 1 µM.

As to `O=C(N=S1(=O)NC(=O)c2cccnc21)Nc1c2c(cc3c1CCC3)CCC2` (stereo not shown) [Compound 223, 1-(1,2,3,5,6,7-hexahydro-s-indacen-4-yl)-3-(1-oxido-3-oxo-2,3-dihydro-1l4-isothiazolo[5,4-b]pyridin-1-ylidene)urea], the IC50 fell in the range of 5 to 30 µM.

Regarding `CC(C)(O)c1cc2c(s1)S(=O)(=NC(=O)Nc1c3c(cc4c1CCC4)CCC3)NC2=O` (stereo not shown) [Compound 229, 1-(1,2,3,5,6,7-hexahydro-s-indacen-4-yl)-3-(5-(2-hydroxypropan-2-yl)-1-oxido-3-oxo-2,3-dihydro-1l4-thieno[3,2-d]isothiazol-1-ylidene)urea], the IC50 was in the range of 5 to 30 µM.

Turning to `CC(C)(O)c1cccc(C2CC(=O)NS2(=O)=NC(=O)Nc2c3c(cc4c2CCC4)CCC3)c1` (stereo not shown) [Compound 253, 1-(1,2,3,5,6,7-hexahydro-s-indacen-4-yl)-3-(5-(3-(2-hydroxypropan-2-yl)phenyl)-1-oxido-3-oxo-1l6-isothiazolidin-1-ylidene)urea], the IC50 lay in the range of 0.2 to 1 µM.

Regarding `O=C(N=S1(=O)CCC(Cc2ccccc2)C(=O)N1)Nc1c2c(cc3c1CCC3)CCC2` (stereo not shown) [Compound 266, 1-(4-benzyl-1-oxido-3-oxo-1l6,2-thiazinan-1-ylidene)-3-(1,2,3,5,6,7-hexahydro-s-indacen-4-yl)urea], the IC50 is 5 to 30 µM.

The values are drawn from patent US12134611B2, “Compounds and compositions for treating conditions associated with NLRP activity” (Novartis AG, priority 2018, dated 2024).
